Assays:
Assay type in all cases: physicochemical
[1] = Tryptophan fluorescence emission spectra at acidic and basic pH; settings: POPC/POPS (9/1), Trp fluorescence, λex 280 nm
[2] = as above; settings: POPC, Trp fluorescence, λex 280 nm
[3] = pKFI determination: tryptophan fluorescence pH titration; settings: lipid:peptide 150:1; for pKFI in the presence of NaCl: 150 mM NaCl, POPC and POPC/POPS (9/1) gave similar pKFI; for effect of 150 mM NaCl on the pKFI: POPC vesicles, compared with no NaCl, result in words
[4] = pKFI determination: tryptophan fluorescence pH titration with PS in the vesicles; settings: for PS50 (amount of PS needed to reach 50% of change in pKFI): hyperbolic fit (Eq. 2) of pKFI versus molar percent POPS, 0-20%
[5] = POPC/POPS vesicles, PS 0-20 mol%, lipid:peptide 200:1, 1 μM peptide

Fluorescence spectral maxima ([1]; acidic pH (pH 4)) [nm] | Fluorescence spectral maxima ([1]; basic pH (pH 8)) [nm] | Fluorescence spectral maxima ([2]; acidic pH (pH 4)) [nm] | Fluorescence spectral maxima ([2]; basic pH (pH 8)) [nm] | pKFI in the presence of NaCl [3] | effect of 150 mM NaCl on the pKFI [3] | increase in the pKFI caused by PS [4, 5] [pH units] | effect of PS on the pKFI ([4]; POPC/POPS vesicles, seven PS levels between 0-20%, result in words) | Sequence | PS50 (amount of PS needed to reach 50% of change in pKFI) [4] [% PS] | decrease in the pKFI caused by PS [4, 5] [pH units]
320.2 ± 1.7 | 331.7 ± 1.8 | 329.7 ± 1.2 | 342.1 ± 2.1 | ~5.4 | no change | ~0.4 | – | GKAGKAGLLGLEGLLGLPLGLLEGLWLGLELEGN [K2-ATRAM] | 1.9 | –
330.8 ± 0.8 | 350.9 ± 1.0 | 327.3 ± 0.7 | 341.1 ± 2.3 | ~5.7 | decreased | – | not significantly affected | GLAGLAGLLGLEGLLGLPLGLLEGLWLGLELEGN [ATRAM, acidity-triggered rational membrane (ATRAM) peptide] | – | –

Sequence | Fluorescence spectral maxima ([1]; acidic pH (pH 4)) [nm] | Fluorescence spectral maxima ([1]; basic pH (pH 8)) [nm] | Fluorescence spectral maxima ([2]; acidic pH (pH 4)) [nm] | Fluorescence spectral maxima ([2]; basic pH (pH 8)) [nm] | pKFI in the presence of NaCl [3] | effect of 150 mM NaCl on the pKFI [3] | increase in the pKFI caused by PS [4, 5] [pH units] | effect of PS on the pKFI ([4]; POPC/POPS vesicles, seven PS levels between 0-20%, result in words) | PS50 (amount of PS needed to reach 50% of change in pKFI) [4] [% PS] | decrease in the pKFI caused by PS [4, 5] [pH units]
GYAGLAGLLGLEGLLGLPLGLLEGLWLGLELEGN [Y-ATRAM] | 320.5 ± 1.9 | 342.7 ± 2.3 | 324.5 ± 2.9 | 343.9 ± 3.6 | ~5.7 | decrease | – | – | 0.5 | ~0.3

— publication doi:10.1101/623967v1 (bioRxiv, 2019)
